Source: paper PMC11130353, “Using host-mimicking conditions and a murine cutaneous abscess model to identify synergistic antibiotic combinations effective against Pseudomonas aeruginosa” (Frontiers in Cellular and Infection Microbiology, 2024)
Values after ≈ are worked out from the molar mass of the structure shown. “Also recorded” adds a separate entry of the source. Read-outs that look alike come from different tables or passages of the source.

Assays:
P. aeruginosa LESB58 [1] = assay: microbe, parasite or virus in culture; format: cell-based, Pseudomonas aeruginosa; settings: for Fold change TCM vs MHB (MIC): MIC in TCM vs MIC in MHB; for MIC: Pseudomonas aeruginosa
Description: (§1) For susceptibility testing under standard conditions, bacteria were cultured in Muller Hinton Broth MHB (Fort Richards Laboratories). […] Further susceptibility testing was also conducted in MHB supplemented with FBS (5% v/v) and DMEM supplemented with glucose (1% w/v) and MHB (10% v/v).
The minimum inhibitory concentration (MIC) of each antibiotic was determined using the broth microdilution method in 96-well plates. […] Briefly, antibiotics were two-fold serially diluted in MHB or TCM prior to adding 1 × 10^6 CFU mL^-1 bacteria. […] The MIC was recorded as the lowest antibiotic concentration with no visible growth and the median value of at least three biological replicates reported.

P. aeruginosa LESB58 [2] = assay: In vitro synergy, checkerboard assay; format: cell-based, Pseudomonas aeruginosa; settings: MHB; for FICI, drug combined with CAZ / FICI, drug combined with CZA: FICI <= 0.5 indicates synergy
Description: (§2) For susceptibility testing under standard conditions, bacteria were cultured in Muller Hinton Broth MHB (Fort Richards Laboratories). Host mimicking conditions in vitro were simulated using tissue culture medium (TCM) consisting of Dulbecco’s modified Eagle medium (DMEM; Gibco #11965) supplemented with FBS (Moregate Biotech) (5% v/v) and glucose (1% w/v). Further susceptibility testing was also conducted in MHB supplemented with FBS (5% v/v) and DMEM supplemented with glucose (1% w/v) and MHB (10% v/v).
(§3) The P. aeruginosa LESB58.lux strain was used for in vitro synergy experiments with azithromycin in MHB and all antibiotic combinations in TCM to determine bacterial growth (as visual inspection and absorbance measurements were unreliable). Synergy was determined using the checkerboard method ([Berenbaum, 1978]; [Pletzer and Hancock, 2018]) in at least triplicate. Each antibiotic was two-fold serially diluted in sterile water before transferring to a 96-well plate containing 1 × 10^6 CFU mL^-1 bacteria in MHB or TCM. Plates were incubated at 37°C for 22-24 hours. The MIC alone or in combination was recorded as the lowest antibiotic concentration with no visible growth. For experiments using the LESB58.lux strain no visible growth was defined as an at least 95% reduction compared to the no antibiotic growth control in luminescence detected using a ClarioStar plate reader. The fractional inhibitory concentration index (FICI) was calculated as [(MICA in combination)/MICA] + [(MICB in combination)/MICB]. FICI values of 0.5 or below indicated synergy, while values above 0.5 up to and including 1 were taken to indicate additivity. FICI values above 1 indicate indifference or antagonism ([Odds, 2003]).

P. aeruginosa PAO1 = assay: Minimum inhibitory concentration, broth microdilution; format: cell-based, Pseudomonas aeruginosa; settings: for Fold change TCM vs MHB (MIC): MIC in TCM vs MIC in MHB; for MIC: Pseudomonas aeruginosa, PAO1
Description: as §1
The minimum inhibitory concentration (MIC) of each antibiotic was determined using the broth microdilution method in 96-well plates. […] Briefly, antibiotics were two-fold serially diluted in MHB or TCM prior to adding 1 × 10^6 CFU mL^-1 bacteria. Plates were incubated at 37°C for 22-24 hours. The MIC was recorded as the lowest antibiotic concentration with no visible growth and the median value of at least three biological replicates reported.

[3] = Description: Mice used in this study were female Swiss Webster aged approximately 6-7 weeks and sourced from the University of Otago Biomedical Research Facility. […] Briefly, the fur on the back of each mouse was removed by shaving and chemical depilation. Antibiotics were tested for skin toxicity by injecting 50 μL of antibiotic suspension subcutaneously into naïve mice, and subsequent inspection of the skin for inflammation on the next day. P. aeruginosa LESB58 was grown to mid-log phase in dYT broth, washed twice in sterile PBS (Gibco, pH 7.4), and resuspended in PBS to ~1 x 10^8 CFU per 50 μL inoculum. The bacterial suspension (50 μL) was injected subcutaneously into the right side of the dorsum, followed one hour later by 50 μL of antibiotic treatment injected directly into the infected area. […] Combination treatments were administered as a single 50 μL injection containing both antibiotics. The concentration of each antibiotic in the combination was the same as when it was used alone. Progression of the infection was monitored daily, and abscess dimensions were measured on day three using a calliper. On day three, abscess tissue and pus were excised, homogenized in sterile PBS using SPEX SamplePrep 1600 MiniG for five minutes and bacterial CFU counts determined by serial dilution.
P. aeruginosa LESB58-lux = assay: In vitro synergy, checkerboard assay (luminescence readout); format: cell-based, Pseudomonas aeruginosa; settings: TCM; for FICI, drug combined with CAZ / FICI, drug combined with CZA: FICI <= 0.5 indicates synergy
Description: as §2, §3

P. aeruginosa LESB58 [4] = assay: Murine high density subcutaneous skin abscess model; format: in vivo, Pseudomonas aeruginosa; settings: Colistin
Description: Mice used in this study were female Swiss Webster aged approximately 6-7 weeks and sourced from the University of Otago Biomedical Research Facility. […] The subcutaneous abscess infection model was performed as previously described ([Pletzer et al., 2017]) with a higher inoculum. Briefly, the fur on the back of each mouse was removed by shaving and chemical depilation. Antibiotics were tested for skin toxicity by injecting 50 μL of antibiotic suspension subcutaneously into naïve mice, and subsequent inspection of the skin for inflammation on the next day. P. aeruginosa LESB58 was grown to mid-log phase in dYT broth, washed twice in sterile PBS (Gibco, pH 7.4), and resuspended in PBS to ~1 x 10^8 CFU per 50 μL inoculum. The bacterial suspension (50 μL) was injected subcutaneously into the right side of the dorsum, followed one hour later by 50 μL of antibiotic treatment injected directly into the infected area. […] Combination treatments were administered as a single 50 μL injection containing both antibiotics. The concentration of each antibiotic in the combination was the same as when it was used alone. Progression of the infection was monitored daily, and abscess dimensions were measured on day three using a calliper. On day three, abscess tissue and pus were excised, homogenized in sterile PBS using SPEX SamplePrep 1600 MiniG for five minutes and bacterial CFU counts determined by serial dilution. In this model, synergy was defined as being a significant difference between the combination treated group and the amalgamated group of single drug treated animals ([Fantin and Carbon, 1992]; [Pletzer et al., 2018]).
Statistical analysis was performed using GraphPad Prism 9.5.1. Bacterial CFU and abscess size data from in vivo experiments was analysed by Kruskal-Wallace test with Dunn’s correction for multiple comparisons. The data was considered significant when p-values were below 0.05 or 0.01 as indicated.

[5] = LESB58, read-out: MIC in MHB, MHB, 20-24 h
[6] = LESB58, read-out: MIC in TCM, TCM (DMEM + 1% glucose + 5% FBS), 20-24 h
[7] = 50 μL injected subcutaneously, skin inspected next day
[8] = tigecycline and tobramycin groups, compared to the vehicle control, day 3

Structure (SMILES) | Fold change TCM vs MHB (MIC) (P. aeruginosa LESB58 [1]) | MIC (P. aeruginosa LESB58 [1]; [5]) [µg/mL] | MIC (P. aeruginosa LESB58 [1]; [6]) [µg/mL] | Fold decrease in CAZ MIC, drug combined with CAZ (P. aeruginosa LESB58 [2]) | Fold decrease in CZA MIC, drug combined with CZA (P. aeruginosa LESB58 [2]) | Fold decrease in other MIC, drug combined with CAZ (P. aeruginosa LESB58 [2]) | Fold decrease in other MIC, drug combined with CZA (P. aeruginosa LESB58 [2]) | FICI, drug combined with CAZ (P. aeruginosa LESB58 [2]) | Fold change TCM vs MHB (MIC) (P. aeruginosa PAO1) | MIC (P. aeruginosa PAO1; read-out: MIC in MHB) [µg/mL] | MIC (P. aeruginosa PAO1; read-out: MIC in TCM) [µg/mL] | Highest tolerated dose tested [3, 7] [mg/mL] | other results
C[C@H]1[C@H](NC(=O)/C(=N\OC(C)(C)C(=O)O)c2csc(N)n2)C(=O)N1S(=O)(=O)O [ATM, aztreonam] | 8 | 62.5 (≈ 144 µM) | 500 | 2 | 2 | 4 | 4 | 0.75 | 1 | 12.5 (≈ 28.7 µM) | 12.5 (≈ 28.7 µM) | 25 | FICI, drug combined with CZA (P. aeruginosa LESB58 [2]): 0.75
O=C(O)c1cn(C2CC2)c2cc(N3CCNCC3)c(F)cc2c1=O [CIP, ciprofloxacin] | – | 3.13 (≈ 9.45 µM) | 50 | – | – | – | – | 0.5 | – | 0.156 (≈ 0.471 µM) | 1.25 (≈ 3.77 µM) | 40 | Ceftazidime-avibactam MIC in combination with the named drug (P. aeruginosa LESB58-lux): 4 µg/mL; FICI, drug combined with CAZ (P. aeruginosa LESB58-lux; LESB58-lux): 0.63; FICI, drug combined with CZA (P. aeruginosa LESB58-lux; LESB58-lux): 0.63; FICI, drug combined with CZA (P. aeruginosa LESB58 [2]): 0.5
Cn1c(N)c(NC(=O)NCCN)c[n+]1CC1=C(C(=O)O)N2C(=O)[C@@H](NC(=O)/C(=N\OC(C)(C)C(=O)[O-])c3nsc(N)n3)[C@H]2SC1 [Ceftolozane] | – | – | – | – | – | – | – | – | – | – | – | 50 | –
CNC(C)C1CCC(N)C(OC2C(N)CC(N)C(OC3OCC(C)(O)C(NC)C3O)C2O)O1 (stereo not drawn) [GEN, gentamicin] | 20 | 25 (≈ 52.3 µM) | 500 | 8 | 8 | 8 | 8 | 0.25 | 16 | 1.56 (≈ 3.27 µM) | 25 (≈ 52.3 µM) | 20 | Toxic (visible skin irritation, inflammation, blood vessels, swelling) [3, 7]: 40 mg/mL
C[C@@H](O)[C@H]1C(=O)N2C(C(=O)O)=C(S[C@@H]3CN[C@H](C(=O)N(C)C)C3)[C@H](C)[C@H]12 [MEM] | – | – | – | – | – | – | – | – | – | – | – | – | Toxic (visible skin irritation, inflammation, blood vessels, swelling) [3, 7]: 20 mg/mL; Highest tolerated dose tested ([3]; mouse, in vivo, sc): 10 mg/mL
NC[C@H]1O[C@H](O[C@H]2[C@H](O)[C@@H](O[C@H]3O[C@H](CO)[C@@H](O)[C@H](N)[C@H]3O)[C@H](N)C[C@@H]2N)[C@H](N)C[C@@H]1O [TOB, tobramycin] | 20 | 3.13 (≈ 6.69 µM) | 62.5 | 4 | 4 | 8 | 8 | 0.38 | 40 | 0.625 (≈ 1.34 µM) | 25 (≈ 53.5 µM) | – | Fold decrease in CAZ MIC, drug combined with CAZ (P. aeruginosa LESB58-lux; LESB58-lux): 8; Fold decrease in CZA MIC, drug combined with CZA (P. aeruginosa LESB58-lux; LESB58-lux): 2; Fold decrease in other MIC, drug combined with CAZ (P. aeruginosa LESB58-lux; LESB58-lux): 4; Fold decrease in other MIC, drug combined with CZA (P. aeruginosa LESB58-lux; LESB58-lux): 8; FICI, drug combined with CAZ (P. aeruginosa LESB58-lux; LESB58-lux): 0.38; FICI, drug combined with CZA (P. aeruginosa LESB58-lux; LESB58-lux): 0.63; FICI, drug combined with CAZ (P. aeruginosa LESB58-lux; LESB58-lux, listed as tobramycin): synergised; also recorded: retained; FICI, drug combined with CAZ (P. aeruginosa LESB58 [2]; listed as tobramycin): < 0.4; FICI, drug combined with CZA (P. aeruginosa LESB58 [2]; listed as tobramycin): < 0.4; Area of dermoncecrosis, Mean (P. aeruginosa LESB58 [4]; tigecycline and tobramycin groups (shared vehicle, CAZ and CZA mice), female Swiss Webster mice, 50 μL s.c. 1 h after infection, day 3, CAZ or CZA 50, CST 1.25, TGC 2.5, TOB 2 mg/mL, vehicle 0.9% saline): 55.6 mm^2; Area of dermoncecrosis, % reduction (P. aeruginosa LESB58 [4]; [8]): 40.9%; CFU per abscess, Fold change (P. aeruginosa LESB58 [4]; [8]): -5.4; Area of dermoncecrosis, % reduction (P. aeruginosa LESB58 [4]; tigecycline and tobramycin groups, compared to the vehicle control, day 3, listed as tobramycin): 41%; CFU per abscess, Geometric mean (P. aeruginosa LESB58 [4]; tigecycline and tobramycin groups, day 3): 4.5 × 10^7 CFU per abscess; Fold reduction of bacterial load (CFU) relative to vehicle (P. aeruginosa LESB58 [4]; tigecycline, tobramycin experiments): ~5
C[C@]1(Cn2ccnn2)[C@H](C(=O)O)N2C(=O)C[C@H]2S1(=O)=O [Tazobactam] | – | – | – | – | – | – | – | – | – | – | – | – | Highest tolerated dose tested ([3]; female, Swiss Webster, mouse, in vivo, sc, 1 day): 25 mg/mL
